Test results as given in patent US12447156B2, “Treating progressive familial intrahepatic cholestasis (PFIC) with IBAT inhibitors” (ALBIREO AB, priority 2020, dated 2025).

What was measured:
[1] = test system: children with PFIC1 or PFIC2; experiment: PEDFIC 1: quality of life (PedsQL and PedsQL Family Impact Module); format: in vivo, human
Protocol: Study design and eligibility was as follows. In PEDFIC 1, patients were randomized 1:1:1 to receive oral, once-daily placebo, odevixibat 40 μg/kg/day, or odevixibat 120 μg/kg/day for 24 weeks; patients who completed 24 weeks of treatment could enroll in an open-label extension. Patients between the ages of 6 months and 18 years with a diagnosis of PFIC1 or PFIC2 were eligible for the study if they had elevated serum bile acid levels (defined as ≥100 μmol/L averaged from 2 samples taken prior to randomization, ≥7 days apart) and significant pruritus as reported by caregivers (average score ≥2 on a scale of 0-4 in the 2 weeks prior to randomization using an observer-reported outcome instrument).
A change from baseline to week 24 for the Pediatric QoL Inventory (PedsQL) questionnaire was assessed as an exploratory endpoint. Caregivers of patients ≥2 years old completed the PedsQL questionnaire, which assessed patient functioning in physical, emotional, social, and school domains; the output is a score between 0 and 100, where higher scores indicate better functioning and a higher change from baseline indicates an improvement in QoL, In addition, caregivers completed the PedsQL Family Impact Module, which assesses physical, emotional, social, and cognitive functioning as well as communication, worry, daily activities, and family relationship domains, also on a scale of 0 to 100. Total scores at baseline and at week 24 for all treatment groups as well as mean changes in scores from baseline to week 24 are presented for both odevixibat doses combined vs placebo; these are summarized descriptively.

patients with PFIC = experiment: Pooled PEDFIC 1/2 (up to 72 weeks): serum bile acids, pruritus and sleep parameters, correlations, responders; format: in vivo, human
Protocol: Methods: PEDFIC 1 was a randomized, double-blind study in children with PFIC1 or PFIC2; patients received either once-daily placebo, odevixibat 40 μg/kg, or odevixibat 120 μg/k g for 24 weeks. PEDFIC 2 is an ongoing, 72 week extension study in patients with any type of PFIC in which all patients receive odevixibat 120 μg/kg/day. In both PEDFIC 1 and PEDFIC 2, eligible patients had elevated serum bile acids and significant pruritus at screening. Here, patient pruritus and sleep-related data (including tiredness during the day) were included, which were evaluated twice daily by caregivers using the validated PRUCISION scale via an electronic diary. Pruritus and tiredness responses range from 0 to 4, with higher scores indicating worse symptoms; other sleep assessments include questions with Yes/No response s. Correlations between percentage change from baseline in serum bile acids and change from baseline in observer-reported diary data (pruritus, sleep characteristics) were assessed as post hoc analyses and are summarized with Pearson coefficient s (r).

[2] = PEDFIC 1, all doses, placebo 7.9
[3] = Week 24, 120 μg/kg/day (n = 15)

CCCCC1(CCCC)CN(c2ccccc2)c2cc(SC)c(OCC(=O)N[C@@H](C(=O)N[C@@H](CC)C(=O)O)c3ccc(O)cc3)cc2S(=O)(=O)N1 [Odevixibat, 1,1-dioxo-3,3-dibutyl-5-phenyl-7-methylthio-8-(N-{(R)-α-[N-((S)-1-carboxypropyl)carbamoyl]-4-hydroxybenzyl}carbamoylmethoxy)-2,3,4,5-tetrahydro-1,2,5-benzothiadiazepine]
PedsQL total score, mean change from baseline to week 24 ([1]; PEDFIC 1, all doses, placebo 0.5): 7.8 | PedsQL Family Impact Module Family relationships, mean change from baseline to week 24 ([1]; PEDFIC 1, all doses, placebo 2.1): 10.9 | PedsQL Family Impact Module Cognitive, mean change from baseline to week 24 ([1]; PEDFIC 1, all doses, placebo 3.2): 16.4 | PedsQL Family Impact Module Total score, mean change from baseline to week 24 ([1]; PEDFIC 1, all doses, placebo 5.6): 14.5 | PedsQL Family Impact Module Emotional, mean change from baseline to week 24 [1, 2]: 13.4 | PedsQL Family Impact Module Worry, mean change from baseline to week 24 [1, 2]: 12.8 | PedsQL Family Impact Module Physical, mean change from baseline to week 24 ([1]; PEDFIC 1, all doses, placebo 8.1): 18.9 | PedsQL Family Impact Module Social, mean change from baseline to week 24 ([1]; PEDFIC 1, all doses, placebo 8.5): 13.5 | PedsQL Family Impact Module Daily activities, mean change from baseline to week 24 ([1]; PEDFIC 1, all doses, placebo 9.3): 21.1 | PedsQL Emotional functioning, mean change from baseline to week 24 ([1]; PEDFIC 1, all doses, placebo 13.5): 14.1 | PedsQL Social functioning, mean change from baseline to week 24 ([1]; PEDFIC 1, all doses, placebo −1.0): 3.6 | PedsQL Family Impact Module Communication, mean change from baseline to week 24 ([1]; PEDFIC 1, all doses, placebo −4.4): 8.3 | PedsQL school functioning, mean change from baseline to week 24 ([1]; PEDFIC 1, all doses, placebo −5.3): 2.3 | PedsQL Physical functioning, mean change from baseline to week 24 ([1]; PEDFIC 1, all doses, placebo −5.9): 7.8 | PedsQL Family Impact Module Cognitive functioning, Mean (SE) ([1]; Week 24, 40 μg/kg/day (n = 19)): 65.3 (4.9) | PedsQL Family Impact Module Communication, Mean (SE) ([1]; Week 24, 40 μg/kg/day (n = 19)): 57.0 (5.6) | PedsQL Family Impact Module Daily activities, Mean (SE) ([1]; Week 24, 40 μg/kg/day (n = 19)): 50.9 (6.1) | PedsQL Family Impact Module Emotional functioning, Mean (SE) ([1]; Week 24, 40 μg/kg/day (n = 19)): 55.8 (5.6) | PedsQL Family Impact Module Family relationships, Mean (SE) ([1]; Week 24, 40 μg/kg/day (n = 19)): 68.7 (5.9) | PedsQL Family Impact Module Physical functioning, Mean (SE) ([1]; Week 24, 40 μg/kg/day (n = 19)): 57.0 (5.7) | PedsQL Family Impact Module Social functioning, Mean (SE) ([1]; Week 24, 40 μg/kg/day (n = 19)): 61.8 (6.4) | PedsQL Family Impact Module Total score, Mean (SE) ([1]; Week 24, 40 μg/kg/day (n = 19)): 58.4 (4.7) | PedsQL Family Impact Module Worry, Mean (SE) ([1]; Week 24, 40 μg/kg/day (n = 19)): 47.9 (5.3) | PedsQL School functioning, Mean (SE) ([1]; Week 24, 40 μg/kg/day, n 9): 53.2 (5.2) | PedsQL Emotional functioning, Mean (SE) ([1]; Week 24, 40 μg/kg/day, n 13): 54.6 (4.7) | PedsQL Physical functioning, Mean (SE) ([1]; Week 24, 40 μg/kg/day, n 13): 56.3 (4.0) | PedsQL Social functioning, Mean (SE) ([1]; Week 24, 40 μg/kg/day, n 13): 63.1 (6.4) | PedsQL Total score, Mean (SE) ([1]; Week 24, 40 μg/kg/day, n 13): 56.8 (4.0) | PedsQL Family Impact Module Cognitive functioning, Mean (SE) [1, 3]: 67.7 (6.2) | PedsQL Family Impact Module Communication, Mean (SE) [1, 3]: 68.9 (5.6) | PedsQL Family Impact Module Daily activities, Mean (SE) [1, 3]: 54.4 (8.1) | PedsQL Family Impact Module Emotional functioning, Mean (SE) [1, 3]: 63.0 (5.9) | PedsQL Family Impact Module Family relationships, Mean (SE) [1, 3]: 72.7 (5.6) | PedsQL Family Impact Module Physical functioning, Mean (SE) [1, 3]: 63.3 (5.6) | PedsQL Family Impact Module Social functioning, Mean (SE) [1, 3]: 64.6 (7.6) | PedsQL Family Impact Module Total score, Mean (SE) [1, 3]: 63.5 (5.3) | PedsQL Family Impact Module Worry, Mean (SE) [1, 3]: 52.0 (5.8) | PedsQL School functioning, Mean (SE) ([1]; Week 24, 120 μg/kg/day, n 10): 63.3 (7.6) | PedsQL Emotional functioning, Mean (SE) ([1]; Week 24, 120 μg/kg/day, n 11): 59.6 (6.9) | PedsQL Physical functioning, Mean (SE) ([1]; Week 24, 120 μg/kg/day, n 11): 56.8 (8.7) | PedsQL Social functioning, Mean (SE) ([1]; Week 24, 120 μg/kg/day, n 11): 65.9 (8.6) | PedsQL Total score, Mean (SE) ([1]; Week 24, 120 μg/kg/day, n 11): 60.7 (7.0) | PedsQL Family Impact Module Cognitive functioning, Mean (SE) ([1]; Week 24, All Doses (n = 34)): 66.3 (3.8) | PedsQL Family Impact Module Communication, Mean (SE) ([1]; Week 24, All Doses (n = 34)): 62.3 (4.1) | PedsQL Family Impact Module Daily activities, Mean (SE) ([1]; Week 24, All Doses (n = 34)): 52.5 (4.9) | PedsQL Family Impact Module Emotional functioning, Mean (SE) ([1]; Week 24, All Doses (n = 34)): 59.0 (4.1) | PedsQL Family Impact Module Family relationships, Mean (SE) ([1]; Week 24, All Doses (n = 34)): 70.4 (4.1) | PedsQL Family Impact Module Physical functioning, Mean (SE) ([1]; Week 24, All Doses (n = 34)): 59.8 (4.0) | PedsQL Family Impact Module Social functioning, Mean (SE) ([1]; Week 24, All Doses (n = 34)): 63.1 (4.8) | PedsQL Family Impact Module Total score, Mean (SE) ([1]; Week 24, All Doses (n = 34)): 60.6 (3.5) | PedsQL Family Impact Module Worry, Mean (SE) ([1]; Week 24, All Doses (n = 34)): 49.7 (3.9) | PedsQL School functioning, Mean (SE) ([1]; Week 24, All Doses, n 19): 58.5 (4.7) | PedsQL Emotional functioning, Mean (SE) ([1]; Week 24, All Doses, n 24): 56.9 (4.0) | PedsQL Physical functioning, Mean (SE) ([1]; Week 24, All Doses, n 24): 56.5 (4.4) | PedsQL Social functioning, Mean (SE) ([1]; Week 24, All Doses, n 24): 64.4 (5.1) | PedsQL Total score, Mean (SE) ([1]; Week 24, All Doses, n 24): 58.6 (3.8) | overall incidence of any event of diarrhea (patients with PFIC; pooled PEDFIC 1/2, 18/84 patients): 21% | patients with any TEAE (patients with PFIC; pooled PEDFIC 1/2, 71 of 84 patients, up to 72 weeks): 85% | TEAEs mild or moderate in severity (patients with PFIC; pooled PEDFIC 1/2, 84 patients): 90%
